Source: patent US9737622B2, “Compounds modulators of VEGF activity and uses thereof” (ADVANCED ACCELERATOR APPLICATIONS S.A., priority 2009, dated 2017)
Entries after “also recorded” stand apart in the source; their conditions may differ. Bridge positions count the residues as written; N and C are the ends. Ends that are not written are not given here.

Assays:
HUVEC cells [1] = experiment: Caspase 3 fluorimetric assay in serum-starved HUVEC; assay type: cell-based, human; details: for effect of VEGF on caspase-3 activity (rescue) when peptide is added: in presence of VEGF, 8 hours
Method: Determination of caspase-3 activity was performed by a fluorometric assay based on the proteolytic cleavage of the AMC-derived substrate N-acetil-DEVD-AMC, which yields a fluorescent product.
HUVEC cells were plated in 6-well dishes at 1×10^5 cells/cm^2. On the next day, cells were treated, in starvation medium (EBM-2, heparin 0.1%, BSA 0.1%), with Pep #3 (25-100 ng/ml) or scrambled Pep RND (100 ng/ml) peptides for 8 h at 37° C. VEGF165 (R & D Systems, Minneapolis, Minn., USA), 25 ng/ml, was used as positive control.
After 8 h the cells were processed with 150 μl of Caspase-3 reaction buffer (HEPES pH 7.5 50 mM, EDTA 0.1 mM, NP-40 0.1%, CHAPS 0.1%, DTT 1 mM) and cell proteins collected after centrifugation at 13000 rpm for 15 min at 4° C. Protein concentrations were determined by Bradford method (Bio-Rad, Hercules, Calif.) and 20 μg of lysates were incubated in 96-well plates with 20 μM N-acetil-DEVD-AMC at 37° C. for 3 h.
Samples were analyzed using a microplate reader (L55 Luminescence Spectometrer Perkin Elmer Instruments) (excitation: 360 nm, emission: 440 nm).
To investigate the biological activity of the designed peptides the authors analyzed the activation of caspase 3 in human primary endothelial (HUVEC) cells serum-deprived by means of a caspase-3 fluorimetric assay. It is well known that VEGF act as survival factor for ECs. […] Experiments were performed on serum starved HUVEC treated with designed peptides in presence or absence of VEGF in order to highlight an antagonist or agonist (VEGF-like) activity respectively. The biological activity of the analyzed compounds is reported as percentage of VEGF rescue (FIG. 1). The decrease of the caspase-3 activity following VEGF incubation is set to 100% rescue.

ERK1/2 = experiment: Western blot of phospho ERK1/2 in HUVEC; assay type: cell-based, human
Method: Cells were plated in 12-well dishes at 1×10^5 cells/cm^2. On the next day, cells were treated, in starvation medium (EBM-2, heparin 0.1%, BSA 0.1%) with Pep #3 (25-100 ng/ml) or Pep RND (100 ng/ml) peptides for 15 min and 30 min at 37° C. VEGF165 (R & D Systems, Minneapolis, Minn., USA) 25 ng/ml was used as positive control. After treatment, whole cell lysates were obtained by using RIPA lysis buffer (Tris 50 mM pH 7.5, NaCl 150 mM, NP-40 1%, EGTA 1 mM, SDS 0.05%) supplemented with Complete Protease Inhibitors and Phosphate Inhibitors (Pierce Biotechnology, Rockford, Ill.). Cell proteins were then collected after centrifugation and protein content was determined by Bradford method (Bio-Rad, Hercules, Calif.). Proteins were separated by electrophoresis on SDS-polyacrylamide gels and transferred to nitrocellulose membrane (Millipore Corp., Bedford, Mass.) by semi-dry electroblotting (Transblot; Bio-Rad Laboratories, Hercules, Calif.).
The serine-tyrosine-phosphorilated ERK1/2 (polyclonal antibody, Cell Signaling Technology, Inc. Danvers, Mass., USA) and aGAPDH (monoclonal antibody 6C5, Santa Cruz Biotechnology, Inc., Santa Cruz, Calif.) were visualized by specific antibodies, anti-rabbit and anti-mouse horseradish peroxidase-conjugated secondary antibody (Jackson Immunoresearch Laboratories, Inc, Baltimor Pike; Pa., USA) standard chemiluminescence (Pierce Biotechnology, Rockford, Ill.).
VEGF-modulated angiogenesis is largely ERK1/2-dependent, leading to DNA synthesis and cell proliferation. […] The authors therefore investigated whether peptide #3 could also induce ERK and AKT activation like VEGF. […] Scrambled Pep-RND had no effect on ERK1/2 and AKT activation, proving that it is unable to activate intracellular signaling (FIG. 2A).

VEGF receptors = experiment: Biological and in vivo assays, summary of angiogenic activity; details: summary statement
Description: The compounds have application in diagnosis and treatment of pathologies depending on angiogenesis, especially they can be used in therapy of […].

AKT = experiment: Western blot of phospho AKT in HUVEC; assay type: cell-based, human; details: serum deprivation, 15 and 30 min, peptide #3 25-100 ng/ml, Pep-RND 100 ng/ml
Method: Cells were plated in 12-well dishes at 1×10^5 cells/cm^2. On the next day, cells were treated, in starvation medium (EBM-2, heparin 0.1%, BSA 0.1%) with Pep #3 (25-100 ng/ml) or Pep RND (100 ng/ml) peptides for 15 min and 30 min at 37° C. VEGF165 (R & D Systems, Minneapolis, Minn., USA) 25 ng/ml was used as positive control. After treatment, whole cell lysates were obtained by using RIPA lysis buffer (Tris 50 mM pH 7.5, NaCl 150 mM, NP-40 1%, EGTA 1 mM, SDS 0.05%) supplemented with Complete Protease Inhibitors and Phosphate Inhibitors (Pierce Biotechnology, Rockford, Ill.). Cell proteins were then collected after centrifugation and protein content was determined by Bradford method (Bio-Rad, Hercules, Calif.). Proteins were separated by electrophoresis on SDS-polyacrylamide gels and transferred to nitrocellulose membrane (Millipore Corp., Bedford, Mass.) by semi-dry electroblotting (Transblot; Bio-Rad Laboratories, Hercules, Calif.). […]

RB protein = experiment: Western blot of RB phosphorylation in HUVEC; assay type: cell-based, human; details: 24 hours, Pep #3 10-100 ng/ml, VEGF165 25 ng/ml, Pep RND 100 ng/ml
Method: FIG. 3—A) HUVEC cells were incubated in starvation medium (EBM-2, 0.1% heparin, 0.1% BSA) alone or in presence of VEGF165 (25 ng/ml) or with indicated concentrations of Pep #3 or Pep RND (100 ng/ml), for 24, 48 and 72 hours at 37° C. in 5% CO2 atmosphere. Cells were then incubated with CyQUANT® NF reagent for 1 hour at 37° C. and fluorescence intensities of quadruplicate samples were measured with a fluorescence microplate reader using excitation at 485 nm and fluorescence detection at 530 nm. In graph values are calculated as % of proliferating cells compared to controls (untreated cells) at 24, 48 and 72 hours. B) ERK1/2 phosphorylation and phospho-RB was evaluated at 24 hr after stimulation with Pep #3 (10-25-50 and 100 ng/ml), VEGF165 (25 ng/ml) and Pep RND (100 ng/ml). Anti-ERK1/2 and anti-GAPDH antibodies were used as loading control
As a marker of cell proliferation, the RB phosphorylation status was also checked in the same experimental conditions. RB protein, in fact, is able to regulate proliferation by controlling cell cycle progression through the restriction point within the G1 and S phases.

HUVEC cells [2] = experiment: Cell proliferation assay (CyQUANT NF); assay type: cell-based, human
Method: HUVEC cells were plated at density of 1200 cells/well in 96-well poly-D-lysine-coated microplates (Becton Dickinson, Franklin Lakes, N.J. USA). After 24 hours incubation in starvation medium (EBM-2, heparin 0.1%, BSA 0.1%), cells were treated with VEGF165 25 ng/ml (R & D Systems, Minneapolis, Minn., USA), with Pep #3 (10-25-50-100 ng/ml) or Pep RND (100 ng/ml). Cell proliferation was determined by using CyQUANT® NF Cell Proliferation Assay Kit (Molecular Probes, Invitrogen S.R.L., Milano, Italy) at 24, 48 and 72 hour after treatment. CyQUANT® NF assay is based on cellular DNA content measurement via fluorescent dye binding. Because cellular DNA content is highly regulated, it is closely proportional to cell number. Briefly, medium was removed and cells incubated with CyQUANT NF reagent for 1 hour at 37° C. according to the manufacturer's instructions. Plates were then analyzed by using a microplate reader (L55 Luminescence Spectometrer Perkin Elmer Instruments) (excitation: 485 nm, emission: 520 nm).
To evaluate whether peptide #3 induces cellular proliferation, a cell proliferation assay was performed on HUVEC cells treated, in serum deprivation conditions, with pep #3 (10-25-50-100 ng/ml) or Pep RND (100 ng/ml). After 24, 48 and 72 hours of treatment cell proliferation was measured by CyQUANT® NF Cell Proliferation Assay Kit. […] This effect is evident at 24, 48 and 72 hours. […]

blood vessel development = experiment: Directed In Vivo Angiogenesis Angioreactor (DIVAA); set-up: species or system CD1 mice; details: mice, 21 days
Method: Female CD1 mice (20-25 g) were supplied by Charles-River (Italy) and kept in temperature- and humidity-controlled rooms (22° C., 50%) with lights on from 07:00 to 19:00 h, water and food available ad libitum. All procedures were carried out in accordance with the Italian law (Legislative Decree no. 116, 27 Jan. 1992), which acknowledges the European Directive 86/609/EEC, and were fully compliant with GlaxoSmithKline policy on the care and use of laboratory animal and codes of practice. Furthermore, all efforts were made to minimize the number of animals used and their suffering.
Sterile silicone cylinders closed at one end, called angioreactors (Cultrex, Trevigen, Inc. Helgerman Conn., Gaithersburg), were filled with 20 μL of basement membrane extract (BME) premixed with or without angiogenesis factors (VEGF, FGF) to obtain positive and negative controls respectively. […]
Vessel formation evaluation was performed after 21 days. […] Subsequently, cells were incubated with FITC-Lectin reagent (available in the kit) and then observed by fluorescence microscope (ZEISS, German).
Pro-angiogenic peptide #3 activity was also assayed in an in vivo test using DIVAA (Directed in Vivo Angiogenesis Angioreactor). DIVAA test is performed by implanting angioreactors into the dorsal flank of mice; this allows a quantitative assessment of blood vessel development. […]

## KQCLWIRSGDRPWYCTS (disulfide 3-15 (inferred)) [Peptide #4]
HUVEC cells [1]
  effect of VEGF on caspase-3 activity (rescue) when peptide is added: partially abolished
ERK1/2; 100 ng/mL, 30 min, VEGF 25 ng/ml
  ERK 1/2 activation of VEGF stimulated HUVE cells: dramatically reduces
ERK1/2; 100 ng/mL, 30 min, no VEGF
  biological effect (ERK1/2 activation) on untreated HUVE cells: does not show any biological effect
VEGF receptors
  angiogenic biological activity (pro- or anti-): antiangiogenic activity

## KQCMWIKPHQGQWTCTS (disulfide 3-15 (inferred)) [compound 2]
HUVEC cells [1]
  effect of VEGF on caspase-3 activity (rescue) when peptide is added: partially abolished
VEGF receptors
  angiogenic biological activity (pro- or anti-): antiangiogenic activity

## KQIMWIKPHQGQWIYTS (prepared by chemical synthesis) [compound 1]
VEGF receptors
  angiogenic biological activity (pro- or anti-): antiangiogenic activity

## KQLLWIRSGDRPWYYTS (prepared by chemical synthesis) [Peptide #3]
HUVEC cells [1]; 8 hour, without added VEGF, peptide #3 25 ng/ml and 100 ng/ml, vs untreated and Pep-RND-treated cells
  caspase-3 activity (rescue from apoptosis): significantly decreased
ERK1/2; HUVEC, 24 hours, Pep #3 10-100 ng/ml, VEGF165 25 ng/ml
  ERK1/2 activation after 24 hours of treatment: confirmed ERK1/2 activation
ERK1/2; HUVEC, serum deprivation, 15 and 30 min, peptide #3 25-100 ng/ml, Pep-RND 100 ng/ml
  ERK1/2 activation (phospho ERK1/2): displayed ERK1/2 and AKT activation
AKT
  AKT activation (phospho AKT): displayed ERK1/2 and AKT activation
RB protein
  RB phosphorylation: enhanced RB phosphorylation
HUVEC cells [2]; 25 and 50 ng/ml, 48 and 72 hours
  cell proliferation at 25 and 50 ng/ml: Considerable effects
HUVEC cells [2]; serum deprivation, 24, 48 and 72 hours, pep #3 10-25-50-100 ng/ml, Pep RND 100 ng/ml
  cell proliferation: able to induce, in a dose dependent manner, cell proliferation
Blood vessel development; 100 ng/ml, FITC-lectin positive cells
  induction of new vessel formation with respect to negative controls: 3.8 fold
Blood vessel development; subcutaneous angioreactors, peptide #3 100 ng/ml
  blood vessels development / new vessel formation in angioreactors: Blood vessels development was observed; also recorded: new vessel formation was observed
VEGF receptors
  angiogenic biological activity (pro- or anti-): proangiogenic biological activity
